24 compounds from the Deep4Chem optical property database can be followed below.

The series is described as follows: photoluminescence quantum yield (fraction); solvent given as SMILES.

The structures appear in SMILES notation.

As to `COc1ccc(/C=C/C(=O)c2ccccc2O)cc1OC`, the photoluminescence quantum yield was 0 (in C1CCOC1); 0.072 (in C1COCCO1); 0.28 (in CC#N); 0.37 (in CCCO); 0.15 (in CCO); 0.36 (in CN(C)C=O). Also, the photoluminescence quantum yield stood at 0.24 (in CO), 0.47 (in CS(C)=O), 0.053 (in ClC(Cl)Cl) and 0.037 (in ClCCl).

`Cc1cc(C)c(C2=C3C=CC4=[N+]3[B-]3(Oc5ccccc54)Oc4ccccc4-c4ccc2n43)c(C)c1` (configuration not stated) displayed a photoluminescence quantum yield (in ClC(Cl)Cl) of 0.72.

For the compound `COc1ccc(-c2nc(-c3ccc(C(=O)O)cc3)[nH]c2-c2ccc(OC)cc2)cc1`, the photoluminescence quantum yield (in CO) came out at 0.42.

Turning to `COc1nc(Cl)nc(Nc2ccc3cc4ccccc4cc3c2)n1`, the photoluminescence quantum yield is 0.25 (in C1COCCO1), 0.03 (in CC#N), 0.25 (in CCCCOCCCC) and 0.12 (in CCOC(C)=O).

For `O=c1c2ccccc2oc2cc(N3c4ccccc4C4(c5ccccc5Oc5ccccc54)c4ccccc43)ccc12`, the photoluminescence quantum yield (in Cc1ccccc1) came to 0.77.

For the compound `CCCCCCOc1ccc(N(c2ccc(OCCCCCC)cc2)c2ccc(-c3sc(-c4ccc(N(c5ccc(OCCCCCC)cc5)c5ccc(OCCCCCC)cc5)cc4)c4nc(-c5ccc(OC)cc5)c(-c5ccc(OC)cc5)nc34)cc2)cc1`, the photoluminescence quantum yield stood at 0.0287 (in CN(C)C=O) and 0.014 (in ClC(Cl)Cl).

Regarding `CC1=[N+]2C(=C(C3=CC4OCCOCCOCCOCCOC4C=C3)c3c4ccccc4c(/C=C/c4ccc(N(C)C)cc4)n3[B-]2(F)F)c2ccccc21` (configuration not stated), the photoluminescence quantum yield (in CC#N) was found to be 0.24.

In the case of `CC1=CC(C)=[N+]2C1=Cc1c(C)cc(C)n1[B-]2(F)F`, the photoluminescence quantum yield is 0.96 (in CCCCCC), 0.99 (in CO) and 0.92 (in ClCCl).

On to `CC1=CC(C)=[N+]2C1=C(c1ccc(N(C)C)cc1)c1c(C)cc(/C=C/c3ccc(N(C)C)cc3)n1[B-]2(F)F`, for which, where the note is “in CCOCC”, the photoluminescence quantum yield was determined as 0.78.

In turn, `Cc1ccc(C2=Nc3cccc4[n+]3[B-](F)(O2)OC(c2ccc(C)cc2)=N4)cc1` returned a photoluminescence quantum yield (in ClCCl) of 0.3.

Take `CN(C)c1ccc(-c2cc(-c3ccc(N(C)C)cc3)ncn2)cc1`: the photoluminescence quantum yield (in ClCCl) was 0.72.

Where the note is “in C1CCOC1”, `Cc1ccc(C2=C3C=CC([Te]c4ccccc4)=[N+]3[B-](F)(F)n3c([Te]c4ccccc4)ccc32)cc1` displayed a photoluminescence quantum yield of 0.01.

For `c1ccc(-c2nc(-c3ccccc3)nc(-c3ccc(-n4c5ccccc5c5c4c4ccccc4n5-c4ccccc4)cc3)n2)cc1`, the photoluminescence quantum yield (in Cc1ccccc1) was found to be 0.445.

`CC(C)(C)OC(=O)NCCCC(=O)OCc1ccc2c3cccc4cccc(c5cccc1c52)c43` displayed a photoluminescence quantum yield (in CCO) of 0.87.

For `c1ccc(-c2nc(-c3ccccc3)nc(-c3ccc(-c4ccc5c(c4)[Si](c4ccccc4)(c4ccccc4)c4cc(-c6ccc(-c7nc(-c8ccccc8)nc(-c8ccccc8)n7)cc6)ccc4N5c4ccccc4)cc3)n2)cc1`, for the setting “in c1cc(-c2cccc(-n3c4ccccc4c4ccccc43)c2)cc(-n2c3ccccc3c3ccccc32)c1”, the photoluminescence quantum yield turned out to be 0.96.

In the case of `F[B-]1(F)n2c(c3cccc4cccc2c43)=Nc2ccc3ccccc3[n+]21`, the photoluminescence quantum yield is, setting by setting: (in C1CCOC1) 0.98; (in CC#N) 0.99; (in CCCCCC) 0.63; (in Cc1ccccc1) 0.99; (in ClCCl) 0.99.

For `CSC1=C2C=C(c3cc4n(c3)[B-](F)(F)[N+]3=CC=CC3=C4c3c(C)cc(C)cc3C)C(C)=[N+]2[B-](F)(F)n2c(C)ccc21`, the photoluminescence quantum yield is 0.83 (in C1CCCCC1); 0.01 (in CC#N); 0.01 (in CC(C)=O); 0.19 (in CCOC(C)=O); 0.57 (in Cc1ccccc1).

Consider `COc1ccc(C#Cc2c(C#Cc3ccc(OC)cc3)c(C#Cc3ccc(OC)cc3)c(C#Cc3ccc(OC)cc3)c(C#Cc3ccc(OC)cc3)c2C#Cc2ccc(OC)cc2)cc1`, for which the photoluminescence quantum yield (in ClCCl) worked out at 0.55.

In the case of `CCn1c2ccccc2c2cc(-c3cc(-c4ccc5c(c4)c4ccccc4n5CC)nc(-c4ccc(OC)cc4)n3)ccc21`, the photoluminescence quantum yield is, setting by setting: (in C1CCOC1) 0.45; (in CCOC(C)=O) 0.56; (in CN(C)C=O) 0.68; (in Cc1ccccc1) 0.54; (in ClCCl) 0.42.

In the case of `CCC1=C(C2=C(C3=C(CC)S(=O)(=O)c4cc(-c5ccc(CO)cc5)ccc43)C(F)(F)C(F)(F)C2(F)F)c2ccc(-c3ccc(CO)cc3)cc2S1(=O)=O`, the photoluminescence quantum yield (in C1COCCO1) amounted to 0.

For the compound `Cc1cc(-c2nc3c4ccccc4c4ccccc4c3n2-c2ccc(C(C)(C)C)cc2)ccc1-c1ccc(-c2c(-c3ccccc3)nc3ccccn23)cc1`, where the note is “in ClCCl”, the photoluminescence quantum yield worked out at 0.77.

Under “in ClCCl”, `C(=C\c1ncc(-c2ccc(OCc3ccccc3)c(OCc3ccccc3)c2)o1)/c1cccc(N2CCN(c3ccccc3)CC2)c1` registered a photoluminescence quantum yield of 0.11.

In the case of `N#Cc1ncc(-c2c3ccccc3c(-c3cnc(C#N)nc3)c3ccccc23)cn1`, the photoluminescence quantum yield runs as follows: (in CCO) 0.05; (in ClCCl) 0.57.

Take `COC(=O)c1[nH]c(-c2ccc([N+](=O)[O-])cc2)c2nnc3ccc(OC)cc3c12`: for the setting “in ClCCl”, the photoluminescence quantum yield came out at 0.262.
